Measured values from patent US20100119599A1 (ARCHER PHARMACEUTICALS, INC., priority 2006, published 2010).

Experiments:
Aβ1-40 = test: Measurement of Aβ1-40 in culture medium of 7W WT APP751 CHO cells by ELISA; format: cell-based, Chinese hamster; conditions: for activity at 5 µM: Cricetulus griseus, Table 1, 5 μM test compound, CHO cells stably transfected with human APP751, culture medium, ELISA, control DMSO, 0 = no detectable amount; for Aβ1-40 (% of control): CHO cells that overexpress APP751, zero = below the detection limit of the assay
Aβ1-42 = test: Measurement of Aβ1-42 in culture medium of 7W WT APP751 CHO cells by ELISA; format: cell-based, Chinese hamster; conditions: for activity at 5 µM: Cricetulus griseus, Table 1, 5 μM test compound, CHO cells stably transfected with human APP751, culture medium, ELISA, control DMSO, 0 = no detectable amount, read-out: Aβ1-42 (% of control); for Aβ1-42 (% of control): CHO cells that overexpress APP751, zero = below the detection limit of the assay
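Also: 5 µM test compound but RI-coded compounds at 10 µM for 24 hours.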

Structure (SMILES)	activity at 5 µM (Aβ1-40) [%]	activity at 5 µM (Aβ1-42) [%]	Aβ1-40 (% of control) (Aβ1-40)	Aβ1-42 (% of control) (Aβ1-42)
COCCOC(=O)C1=C(C)NC2=C(C(=O)CC(C)(C)C2)C1c1ccc(C(C)C)cc1 (centres unmarked) [ST052313, 2-methoxyethyl 2,7,7-trimethyl-4-[4-(methylethyl)phenyl]-5-oxo-1,4,6,7,8-pentahydroquinoline-3-carboxylate]	26.3	23.4		
CCOC(=O)C1=C(C)NC2=C(C(=O)CCC2)C1c1ccc(OCC)cc1 (centres unmarked) [ST213781, ethyl 4-(4-ethoxyphenyl)-2-methyl-5-oxo-1,4,6,7,8-pentahydroquinoline-3-carboxylate]	66.8	81.3		
CCCOC(=O)C1=C(C)NC2=C(C(=O)CC(c3ccc(Cl)cc3)C2)C1c1ccc(Cl)c(Cl)c1 (centres unmarked) [ST017183, propyl 4-(3,4-dichlorophenyl)-7-(4-chlorophenyl)-2-methyl-5-oxo-1,4,6,7,8-pentahydroquinoline-3-carboxylate]	50.1	67.9		
CC1=C(C(=O)Nc2ccccc2)C(c2cccs2)C(C#N)=C(SCC(=O)Nc2ccc(Oc3ccccc3)cc2)N1 (centres unmarked) [RI_8]			46.1 % of control	26.4 % of control
CC1=C(C(=O)OCCc2ccccc2)C(c2ccc(Cl)cc2)C2=C(CC(C)(C)CC2=O)N1 (centres unmarked) [ST015106, 2-phenylethyl 4-(4-chlorophenyl)-2,7,7-trimethyl-5-oxo-1,4,6,7,8-pentahydroquinoline-3-carboxylate]	13.2	0		
COc1ccc(C2C(C(=O)OC3CCCCCC3)=C(C)NC3=C2C(=O)CC(C)(C)C3)c(OC)c1OC (centres unmarked) [ST024504, cycloheptyl 2,7,7-trimethyl-5-oxo-4-(2,3,4-trimethoxyphenyl)-1,4,6,7,8-pentahydroquinoline-3-carboxylate]	0.415	0		
CCCCNC(=O)CSC1=C(C#N)C(c2cccs2)C(C(=O)Nc2ccccc2)=C(C)N1 (centres unmarked) [RI_23]			49.3 % of control	35.9 % of control
CCC(C)OC(=O)C1=C(C)NC2=C(C(=O)CC(c3ccc(Cl)cc3)C2)C1c1ccc(Cl)cc1 (centres unmarked) [ST017089, methylpropyl 4,7-bis(4-chlorophenyl)-2-methyl-5-oxo-1,4,6,7,8-pentahydroquinoline-3-carboxylate]	26.9	82.5		
CC1=C(C(=O)Nc2ccccc2)C(c2cccs2)C(C#N)=C(SCC(=O)Nc2cccc(C)c2)N1 (centres unmarked) [RI_91]			55.9 % of control	60.7 % of control
CC1=C(C(=O)Nc2ccccc2C)C(c2cccs2)C(C#N)=C(SCC(=O)Nc2ccc(C)c(Cl)c2)N1 (centres unmarked) [ST050840, N-(3-chloro-4-methylphenyl)-2-{3-cyano-6-methyl-5-[N-(2-methylphenyl)carbamoyl]-4-(2-thienyl)(2-1,4-dihydropyridylthio)}acetamide]			52.3 % of control	38.84 % of control
CCc1ccc(NC(=O)CSC2=C(C#N)C(c3cccs3)C(C(=O)Nc3ccccc3)=C(C)N2)cc1 (centres unmarked) [RI_61]			68.5 % of control	51.4 % of control
CC1=C(C(=O)Nc2ccccc2)C(c2ccccc2)C(C#N)=C(SCC(=O)Nc2ccccc2C)N1 (centres unmarked) [RI_16]			64.2 % of control	105 % of control
CCCCc1ccc(NC(=O)CSC2=C(C#N)C(c3ccsc3)C(C(=O)Nc3ccccc3)=C(C)N2)cc1 (centres unmarked) [RI_65]			51.7 % of control	38.1 % of control
CCN(CC)c1ccc(C2C(C(=O)OC3CCCC3)=C(C)NC3=C2C(=O)CC(C)(C)C3)cc1 (centres unmarked) [ST013083, cyclopentyl 4-[4-(diethylamino)phenyl]-2,7,7-trimethyl-5-oxo-1,4,6,7,8-pentahydroquinoline-3-carboxylate]	0	91.6		
CCCc1ccc(NC(=O)CSC2=C(C#N)C(c3ccsc3)C(C(=O)Nc3ccccc3)=C(C)N2)cc1 (centres unmarked) [RI_52]			50.3 % of control	61.6 % of control
CC1=C(C(=O)OC(C)(C)C)C(c2ccc(Cl)cc2)C(C#N)=C(SCC(=O)Nc2ccc(C)cc2)N1 (centres unmarked) [ST051142, tert-butyl 4-(4-chlorophenyl)-5-cyano-2-methyl-6-{[N-(4-methylphenyl)carbamoyl]methylthio}-1,4-dihydropyridine-3-carboxylate]			94.85 % of control	46.06 % of control
CC(C)COc1cccc(/C=c2\sc3n(c2=O)C(N)=C(C#N)C(c2cccc(OCC(C)C)c2)C=3C#N)c1 (centres unmarked) [ST025023, 5-amino-7-[3-(2-methylpropoxy)phenyl]-2-{[3-(2-methylpropoxy)phenyl]methylene}-3-oxo-4,7-dihydro-1,3-thiazolidino[3,2-a]pyridine-6,8-dicarbonitrile]			68.13 % of control	85.29 % of control
COC(=O)C1=C(C)NC2=C(C(=O)CC(c3ccc(OC)c(OC)c3)C2)C1c1cc(OC)c(OC)c(OC)c1 (centres unmarked) [ST024574, methyl 7-(3,4-dimethoxyphenyl)-2-methyl-5-oxo-4-(3,4,5-trimethoxyphenyl)-1,4,6,7,8-pentahydroquinoline-3-carboxylate]	65.3	83.6		
CCCOC(=O)C1=C(C)NC2=C(C(=O)CCC2)C1c1cccc(O)c1 (centres unmarked) [ST014959, propyl 4-(3-hydroxyphenyl)-2-methyl-5-oxo-1,4,6,7,8-pentahydroquinoline-3-carboxylate]	64	70.2		
CC1(C)CC(=O)C2=C(C1)N(Cc1ccccc1)C(N)=C(C#N)C21CCOCC1 [ST014138, 2-amino-7,7-dimethyl-5-oxo-1-benzylspiro[1,4,6,7,8-pentahydroquinoline-4,4′-2′ H-3′,4,5′,6′-tetrahydropyran]-3-carbonitrile]	64.1	65.3		
N#CC1=C(N)Nc2c(c(=O)oc3ccccc23)C1c1ccc(Cl)cc1 (centres unmarked) [ST014144, 2-amino-4-(4-chlorophenyl)-5-oxo-1,4-dihydrochromeno[4,3-b]pyridine-3-carbonitrile]			66.08 % of control	66.02 % of control
CC(=O)Oc1ccc(C2C(C(=O)OC(C)C)=C(C)NC3=C2C(=O)CCC3)cc1 (centres unmarked) [ST013192, 4-{2-methyl-3-[(methylethyl)oxycarbonyl]-5-oxo-4-1,4,6,7,8-pentahydroquinolyl} phenyl acetate]	55.5	82.5		
COCCOC(=O)C1=C(C)NC2=C(C(=O)CC(C)(C)C2)C1c1cccnc1 (centres unmarked) [ST017252, 2-methoxyethyl 2,7,7-trimethyl-5-oxo-4-(3-pyridyl)-1,4,6,7,8-pentahydroquinoline-3-carboxylate]	89.6	70.5		
COc1ccccc1C1C(C(=O)OCCc2ccccc2)=C(C)NC2=C1C(=O)CCC2 (centres unmarked) [ST015110, 2-phenylethyl 4-(2-methoxyphenyl)-2-methyl-5-oxo-1,4,6,7,8-pentahydroquinoline-3-carboxylate]	42.8	90.1		
CC1=C(C(=O)OC2CCCCC2)C(c2cccc(Cl)c2Cl)C2=C(CCCC2=O)N1 (centres unmarked) [ST013188, cyclohexyl 4-(2,3-dichlorophenyl)-2-methyl-5-oxo-1,4,6,7,8-pentahydroquinoline-3-carboxylate]	0	47.1		
